In article PMC10821064, “Mode of Antibacterial Action of Tomatidine C3-Diastereoisomers” (Molecules, 2024):

Biological target: T1, ATP synthase subunit c (Escherichia coli, UniProt P68699)
T1 construct: gene atpE; native ATP synthase in membrane vesicles of E. coli ATCC 25922; with whole ATP synthase complex
Assay: inhibition of NADH-driven ATP synthesis in E. coli membrane vesicles, luminescence (ATPlite), Dixon-type Ki
Assay type: biochemical
Details: read-out: Ki (μM) In Vitro

T1 sequence (P68699 whole entry): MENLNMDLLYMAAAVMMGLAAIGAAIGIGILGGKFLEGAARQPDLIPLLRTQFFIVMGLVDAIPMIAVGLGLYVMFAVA

Structure (SMILES) | Ki [µM]
C[C@H]1CCC2(NC1)O[C@H]1C[C@H]3[C@@H]4CCC5C[C@H](NCCN)CC[C@]5(C)[C@H]4CC[C@]3(C)[C@H]1[C@@H]2C (some centres unmarked) [TM-03] | 3.5
C[C@H]1CCC2(NC1)O[C@H]1C[C@H]3[C@@H]4CCC5C[C@@H](NCCN)CC[C@]5(C)[C@H]4CC[C@]3(C)[C@H]1[C@@H]2C (some centres unmarked) [TM-02] | 1.1
